Here are results for 14 compounds from ChEMBL document CHEMBL1141099, “Discovery of N-(2,6-dimethylphenyl)-substituted semicarbazones as anticonvulsants: hybrid pharmacophore-based design” (2005).

Holding throughout (format): functional
The subject of test [1] is Mus musculus. Kind of test: Minimum dose required for anticonvulsant activity when given i.p., at 4 hr in mice upon maximal electroshock seizure.
For test [2], the system named is Mus musculus. Kind of test: Minimum dose required for anticonvulsant activity when given i.p., at 0.5 hr in mice upon subcutaneous pentylenetetrazole seizure.
The subject of test [3] is Rattus norvegicus. Kind of test: Number of rats protected at a dose of 30 mg/Kg when given oral at 0.25 hr upon maximal electroshock seizure; Total number of rats = 4.
In test [4] the test system is Rattus norvegicus. The test can be described thus: Number of rats protected at a dose of 30 mg/Kg when given oral at 1 hr upon maximal electroshock seizure; Total number of rats = 4.
The subject of test [5] is Rattus norvegicus. Kind of test: Number of rats protected at a dose of 30 mg/Kg when given oral at 2 hr upon maximal electroshock seizure; Total number of rats = 4.
Test [6] relates to Mus musculus. The test can be described thus: Minimum dose required for anticonvulsant activity when given i.p., at 0.5 hr in mice upon neurotoxicity seizure using rotarod test.
In test [7] the test system is Mus musculus. Kind of test: Minimum dose required for anticonvulsant activity when given i.p., at 0.5 hr in mice upon maximal electroshock seizure.
In test [8] the test system is Mus musculus. The test can be described thus: Minimum dose required for anticonvulsant activity when given i.p., at 0.5 hr in mice upon subcutaneous strychnine seizure.
Test [9] relates to Rattus norvegicus. The test can be described thus: Number of rats protected at a dose of 30 mg/Kg when given oral at 4 hr upon maximal electroshock seizure; Total number of rats = 4.
The subject of test [10] is Rattus norvegicus. Kind of test: Number of rats protected at a dose of 30 mg/Kg when given oral at 0.5 hr upon maximal electroshock seizure; Total number of rats = 4.
The test system of test [11] is Mus musculus. The test can be described thus: Minimum dose required for anticonvulsant activity when given i.p., at 2 hr in mice upon subcutaneous strychnine seizure.

Consider `Cc1cccc(C)c1NC(=O)N/N=C\c1ccco1`, for which the MES worked out at 300 mg/kg in the test on Mus musculus [1] and 100 mg/kg in the test with Mus musculus [7]. Besides, the PTZ seizure with Mus musculus [2] was 300 mg/kg. The Activity with Rattus norvegicus [3] came to 0; in the test on Rattus norvegicus [4], 1; with Rattus norvegicus [5] it was 4; in the test on Rattus norvegicus [9] it was 3; with Rattus norvegicus [10], 2. The same compound returned an NT in the test with Mus musculus [6] of 300 mg/kg. The STY seizure worked out at 100 mg/kg in the test on Mus musculus [8] and 300 mg/kg in the test with Mus musculus [11].

With `C/C(CC(C)C)=N/NC(=O)Nc1c(C)cccc1C`, the MES in the test on Mus musculus [1] worked out at 300 mg/kg; in the test with Mus musculus [7], 100 mg/kg. Besides, the Activity in the test with Rattus norvegicus [3] came to 1; in the test on Rattus norvegicus [4], 2; in the test with Rattus norvegicus [5], 4; in the test with Rattus norvegicus [9], 2; with Rattus norvegicus [10], 2. Also, the STY seizure in the test with Mus musculus [8] stood at 30 mg/kg; in the test on Mus musculus [11], 100 mg/kg.

On to `Cc1cccc(C)c1NC(=O)NN=C(c1ccccc1)c1ccccc1`, for which the values for the MES with Mus musculus [1] and in the test with Mus musculus [7] were 300 mg/kg and 100 mg/kg, respectively. Moreover, the PTZ seizure in the test on Mus musculus [2] came out at 300 mg/kg. Also, the Activity in the test on Rattus norvegicus [3] turned out to be 1; with Rattus norvegicus [4] it was 1; in the test on Rattus norvegicus [5] it was 1; in the test on Rattus norvegicus [9], 0; with Rattus norvegicus [10] it was 1. In the test on Mus musculus [6], this compound gave an NT of 300 mg/kg. In addition, in the test with Mus musculus [8], the STY seizure stood at 300 mg/kg.

For the compound `CC(C)=NNC(=O)Nc1c(C)cccc1C`, the MES in the test on Mus musculus [1] is 300 mg/kg; in the test with Mus musculus [7], 100 mg/kg. Besides, the PTZ seizure in the test with Mus musculus [2] was found to be 300 mg/kg. Besides, the Activity in the test on Rattus norvegicus [3] is 3; in the test with Rattus norvegicus [4], 4; in the test on Rattus norvegicus [5], 3; in the test on Rattus norvegicus [9] it was 2; in the test on Rattus norvegicus [10], 4. The NT with Mus musculus [6] amounted to 300 mg/kg. Besides, the STY seizure in the test on Mus musculus [8] and with Mus musculus [11] was 100 mg/kg each time.

Consider `COc1ccc(/C=N/NC(=O)Nc2c(C)cccc2C)cc1`, for which the MES in the test on Mus musculus [1] came out at 300 mg/kg; in the test with Mus musculus [7], 100 mg/kg. This compound also displayed a PTZ seizure with Mus musculus [2] of 300 mg/kg. Also, the Activity is recorded as 1 with Rattus norvegicus [3]; 3 with Rattus norvegicus [4]; 3 in the test with Rattus norvegicus [5]; 3 in the test with Rattus norvegicus [9]; 4 in the test with Rattus norvegicus [10]. In addition, the NT in the test with Mus musculus [6] is 300 mg/kg. For the same compound, the STY seizure in the test with Mus musculus [8] was 30 mg/kg; in the test with Mus musculus [11], 100 mg/kg.

`C/C(=N\NC(=O)Nc1c(C)cccc1C)c1ccccc1`: the values for the MES in the test on Mus musculus [1] and with Mus musculus [7] were 300 mg/kg and 100 mg/kg, respectively. This compound registered a PTZ seizure in the test with Mus musculus [2] of 300 mg/kg. In addition, the Activity in the test on Rattus norvegicus [3] stood at 1; in the test with Rattus norvegicus [4] it was 4; in the test on Rattus norvegicus [5], 3; with Rattus norvegicus [9] it was 3; with Rattus norvegicus [10], 2. Besides, the STY seizure stood at 30 mg/kg in the test with Mus musculus [8] and 100 mg/kg with Mus musculus [11].

Consider `Cc1cccc(C)c1NC(=O)N/N=C/c1ccccc1Cl`, for which the MES is 300 mg/kg in the test with Mus musculus [1] and 100 mg/kg with Mus musculus [7]. The PTZ seizure in the test on Mus musculus [2] was 300 mg/kg. For the same compound, the Activity in the test on Rattus norvegicus [3] was 2; in the test with Rattus norvegicus [4] it was 1; with Rattus norvegicus [5], 1; in the test with Rattus norvegicus [9], 4; in the test on Rattus norvegicus [10], 1. For the same compound, the NT in the test with Mus musculus [6] was 300 mg/kg. In addition, the STY seizure in the test with Mus musculus [8] amounted to 30 mg/kg; in the test with Mus musculus [11], 100 mg/kg.

With `C/C(=N\NC(=O)Nc1c(C)cccc1C)c1ccccc1O`, the MES with Mus musculus [1] is 300 mg/kg; with Mus musculus [7], 100 mg/kg. Besides, the PTZ seizure with Mus musculus [2] was 300 mg/kg. Besides, the Activity with Rattus norvegicus [3] is 3; in the test on Rattus norvegicus [4] it was 2; in the test with Rattus norvegicus [5], 3; with Rattus norvegicus [9], 4; in the test on Rattus norvegicus [10], 1. Further, the STY seizure amounted to 100 mg/kg with Mus musculus [8] and 300 mg/kg in the test with Mus musculus [11].

For the compound `Cc1cccc(C)c1NC(=O)NN=C(Cc1ccccc1)Cc1ccccc1`, the MES in the test with Mus musculus [1] and in the test with Mus musculus [7] was 300 mg/kg each time. The Activity with Rattus norvegicus [3] is 0; with Rattus norvegicus [4], 1; in the test on Rattus norvegicus [5] it was 0; in the test with Rattus norvegicus [9] it was 0; in the test on Rattus norvegicus [10], 1. Further, the NT in the test on Mus musculus [6] was determined as 300 mg/kg. In addition, the STY seizure in the test on Mus musculus [8] is 300 mg/kg.

With `Cc1cccc(C)c1NC(=O)N/N=C/c1ccccc1`, the MES in the test on Mus musculus [1] and in the test with Mus musculus [7] was 100 mg/kg in each case. The same compound yielded a PTZ seizure in the test with Mus musculus [2] of 300 mg/kg. In addition, the Activity in the test on Rattus norvegicus [3] came to 1; in the test on Rattus norvegicus [4], 3; with Rattus norvegicus [5], 3; with Rattus norvegicus [9], 4; in the test on Rattus norvegicus [10] it was 3. Further, in the test with Mus musculus [6], the NT amounted to 300 mg/kg. Also, the STY seizure is 30 mg/kg in the test on Mus musculus [8] and 100 mg/kg with Mus musculus [11].

As to `Cc1cccc(C)c1NC(=O)N/N=C/c1ccc([N+](=O)[O-])cc1`, the results for the MES with Mus musculus [1] and in the test with Mus musculus [7] were 300 mg/kg and 100 mg/kg, respectively. The compound also came in with a PTZ seizure with Mus musculus [2] of 300 mg/kg. For the same compound, the Activity turned out to be 1 in the test on Rattus norvegicus [3]; 2 with Rattus norvegicus [4]; 1 in the test on Rattus norvegicus [5]; 1 in the test on Rattus norvegicus [9]; 1 with Rattus norvegicus [10]. In addition, the NT in the test on Mus musculus [6] turned out to be 300 mg/kg. For the same compound, the results for the STY seizure in the test with Mus musculus [8] and in the test with Mus musculus [11] were 30 mg/kg and 100 mg/kg, respectively.

`Cc1cccc(C)c1NC(=O)NN=C1CCCC1`: the MES was determined as 300 mg/kg with Mus musculus [1] and 100 mg/kg in the test with Mus musculus [7]. The PTZ seizure in the test with Mus musculus [2] turned out to be 300 mg/kg. Moreover, the Activity in the test on Rattus norvegicus [3] stood at 2; in the test on Rattus norvegicus [4], 1; in the test on Rattus norvegicus [5] it was 3; with Rattus norvegicus [9], 1; in the test with Rattus norvegicus [10], 2. The compound further showed an NT in the test on Mus musculus [6] of 300 mg/kg.

For the compound `Cc1cccc(C)c1NC(=O)NN=C1CCCCC1`, the MES was determined as 300 mg/kg with Mus musculus [1] and 100 mg/kg in the test with Mus musculus [7]. Besides, the Activity came out at 1 with Rattus norvegicus [3]; 2 with Rattus norvegicus [4]; 4 in the test on Rattus norvegicus [5]; 3 with Rattus norvegicus [9]; 1 in the test on Rattus norvegicus [10]. In the test with Mus musculus [6], this compound yielded an NT of 300 mg/kg. For the same compound, the STY seizure in the test on Mus musculus [8] came out at 100 mg/kg; in the test with Mus musculus [11], 300 mg/kg.

For the compound `C/C(=N\NC(=O)Nc1c(C)cccc1C)c1cccc(N)c1`, the MES in the test on Mus musculus [1] stood at 300 mg/kg; with Mus musculus [7] it was 100 mg/kg. Besides, the Activity in the test on Rattus norvegicus [3] was 1; with Rattus norvegicus [4], 1; with Rattus norvegicus [5], 2; in the test with Rattus norvegicus [9], 3; in the test with Rattus norvegicus [10], 3. The compound also yielded an NT with Mus musculus [6] of 300 mg/kg. The STY seizure with Mus musculus [8] was determined as 100 mg/kg; in the test on Mus musculus [11], 300 mg/kg.
